These are literature values, as cited in patent publication US10689359B2, “Crystals of quinazoline derivative and preparation method therefor” (Xuanzhu Pharma Co., Ltd., priority 2015, dated 2020).

Settings in all cases: cited from earlier work
One series has as its target EGFR (Homo sapiens, UniProt P00533).
The next series concerns HER2/4.
Series [1] has as its system erlotinib-resistant H1975 cell line.

Molecules are shown by their SMILES.

Chain of EGFR (P00533 25-1210): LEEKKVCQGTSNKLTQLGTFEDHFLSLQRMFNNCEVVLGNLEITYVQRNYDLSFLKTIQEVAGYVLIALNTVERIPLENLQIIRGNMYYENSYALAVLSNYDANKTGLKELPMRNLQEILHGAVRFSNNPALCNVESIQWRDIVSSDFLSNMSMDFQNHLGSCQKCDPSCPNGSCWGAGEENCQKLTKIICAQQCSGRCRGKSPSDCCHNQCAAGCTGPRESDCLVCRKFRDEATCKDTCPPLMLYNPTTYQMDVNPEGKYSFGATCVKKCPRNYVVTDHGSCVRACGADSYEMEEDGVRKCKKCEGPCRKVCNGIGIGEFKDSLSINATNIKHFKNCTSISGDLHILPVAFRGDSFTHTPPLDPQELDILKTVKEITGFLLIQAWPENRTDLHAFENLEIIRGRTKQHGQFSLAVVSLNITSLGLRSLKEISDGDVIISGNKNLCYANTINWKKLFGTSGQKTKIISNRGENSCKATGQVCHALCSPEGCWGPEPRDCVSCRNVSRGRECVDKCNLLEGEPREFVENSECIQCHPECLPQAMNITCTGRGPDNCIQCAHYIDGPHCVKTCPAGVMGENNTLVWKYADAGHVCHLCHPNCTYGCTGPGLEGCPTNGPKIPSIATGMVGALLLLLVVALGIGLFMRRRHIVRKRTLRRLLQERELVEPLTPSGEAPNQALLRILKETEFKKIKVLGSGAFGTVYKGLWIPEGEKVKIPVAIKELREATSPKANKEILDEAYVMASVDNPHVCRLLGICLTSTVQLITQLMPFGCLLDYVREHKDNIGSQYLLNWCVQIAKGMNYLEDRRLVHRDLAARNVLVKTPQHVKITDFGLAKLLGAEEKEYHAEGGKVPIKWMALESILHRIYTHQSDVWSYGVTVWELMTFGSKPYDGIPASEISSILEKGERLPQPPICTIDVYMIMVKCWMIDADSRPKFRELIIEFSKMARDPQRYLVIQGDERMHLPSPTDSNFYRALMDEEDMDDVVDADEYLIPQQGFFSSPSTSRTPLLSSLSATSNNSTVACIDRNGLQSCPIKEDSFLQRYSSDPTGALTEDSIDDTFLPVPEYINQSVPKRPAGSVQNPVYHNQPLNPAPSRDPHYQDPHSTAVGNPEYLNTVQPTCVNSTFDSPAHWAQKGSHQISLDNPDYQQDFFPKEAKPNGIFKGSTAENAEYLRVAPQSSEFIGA

As to `C=CC(=O)Nc1cc2c(Nc3ccc(F)c(Cl)c3)ncnc2cc1OCC1CC2(CCN(C)CC2)C1` [Formula (I), N-(4-((3-chloro-4-fluorophenyl)amino)-7-((7-methyl-7-azaspiro[3.5]nonan-2-yl)methoxy)quinazolin-6-yl)acrylamide], on EGFR, the “Inhibition of EGFR” value is recorded as “effectively inhibit”. Besides, the “Inhibition of HER2/4” value in the series with HER2/4 is reported as “inhibitory effect”. Also, the “Inhibition of erlotinib-resistant H1975 cell line” value in series [1] is given as “significantly inhibitory effect”.
